Each structure is given as a SMILES string. Like-named read-outs stand apart in the source and are kept apart here.

Common to all, as to format: biochemical
The target of test [1] is Akt1 (Homo sapiens, UniProt P31749). Put plainly: Akt1 kinase inhibition, Z'-LYTE FRET assay. The settings on record: 100 μM ATP. From the text:
(§1) The ability of illustrative Benzo[c][2,7]naphthyridine Derivatives to inhibit PKA, Akt1, S6K in vitro can be determined using a Fluorescence Resonance Energy Transfer (FRET) assay, such as a Z′-LYTE™ Kinase Assay Platform, commercially available from Invitrogen (c.f. Rodems et al., ASSAY Drug Devel. Technol. 1:9-19 (2002) and Zhang et al., J. Biomol. Screen. 4:67-73 (1999)). Z′-Lyte™ assay is an in vitro FRET-based assay that utilizes differential sensitivity of phosphorylated and non-phosphorylated peptides to proteolytic cleavage. The peptide substrate (also available from Invitrogen for each of PKA, Akt1 and S6K) is labeled with two different fluorophores, a fluorescence donor at one end of the peptide and a fluorescence acceptor at the other end of the peptide. In the primary kinase reaction, the kinase phosphorylates the peptide substrate in the presence of ATP. In the secondary reaction, a site-specific protease recognizes and cleaves non-phosphorylated peptides, but not phosphorylated peptides. Cleavage disrupts FRET between the donor and acceptor fluorophores on the peptide, whereas uncleaved phosphorylated peptides maintain FRET. Based on a formula that uses the ratio of donor emission (at 460 nm) to acceptor emission (at […]) after excitation of the donor fluorophore at 400 nm, the extent of phosphorylation of the peptide substrates is calculated. IC50 values of illustrative Benzo[c][2,7]naphthyridine Derivatives, shown in Table 12, are calculated using LSW Data Analysis package add-in for Excel (Microsoft).

In test [2] the target is T1, PDK-1 (Homo sapiens, UniProt O15530).
T1 sequence (O15530 1-556): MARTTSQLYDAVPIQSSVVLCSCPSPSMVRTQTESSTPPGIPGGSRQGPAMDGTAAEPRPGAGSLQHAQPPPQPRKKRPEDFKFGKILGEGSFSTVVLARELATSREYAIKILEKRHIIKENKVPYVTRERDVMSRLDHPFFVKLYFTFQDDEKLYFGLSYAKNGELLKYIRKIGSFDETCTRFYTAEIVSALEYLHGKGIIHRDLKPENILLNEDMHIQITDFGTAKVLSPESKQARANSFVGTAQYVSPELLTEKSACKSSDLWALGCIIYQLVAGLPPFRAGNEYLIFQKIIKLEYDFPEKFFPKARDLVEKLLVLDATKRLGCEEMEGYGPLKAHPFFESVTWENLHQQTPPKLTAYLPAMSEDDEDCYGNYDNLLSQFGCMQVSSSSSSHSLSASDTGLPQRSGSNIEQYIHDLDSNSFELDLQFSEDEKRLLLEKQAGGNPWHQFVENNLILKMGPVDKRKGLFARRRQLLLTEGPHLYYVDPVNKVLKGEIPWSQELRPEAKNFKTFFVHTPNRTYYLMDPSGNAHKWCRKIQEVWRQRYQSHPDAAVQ
Put plainly: PDK-1 kinase inhibition ELISA assay (phosphorylation of His6-tagged SGK1 S422D by PDK-1). In general terms: In an ELISA, binding on a coated surface is turned into a signal by an enzyme label.

In test [3] the target is PKA (Homo sapiens, UniProt P17612). Description: PKA kinase inhibition, Z'-LYTE FRET assay. The settings on record: 20 μM ATP.
The target of test [4] is S6K (Homo sapiens, UniProt P23443). Description: S6K kinase inhibition, Z'-LYTE FRET assay. The settings on record: 100 μM ATP.
Text: as §1

Where [5] appears, read: PDK-1 ELISA, Table 11, read-out: Average IC50.

Chain of Akt1 (P31749 whole entry, species assumed): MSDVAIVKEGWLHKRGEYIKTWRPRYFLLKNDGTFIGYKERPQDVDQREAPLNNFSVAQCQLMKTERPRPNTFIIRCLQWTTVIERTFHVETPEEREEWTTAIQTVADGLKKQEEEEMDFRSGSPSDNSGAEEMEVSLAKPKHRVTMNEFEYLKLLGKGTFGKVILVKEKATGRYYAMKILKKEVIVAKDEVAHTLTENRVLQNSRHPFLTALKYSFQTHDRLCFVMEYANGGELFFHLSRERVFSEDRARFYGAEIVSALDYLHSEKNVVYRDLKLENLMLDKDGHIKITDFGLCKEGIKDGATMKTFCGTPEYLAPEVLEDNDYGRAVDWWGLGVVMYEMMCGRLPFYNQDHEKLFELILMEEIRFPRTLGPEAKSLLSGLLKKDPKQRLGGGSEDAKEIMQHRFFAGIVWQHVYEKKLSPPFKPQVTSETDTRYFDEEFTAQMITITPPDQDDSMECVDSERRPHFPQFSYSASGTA
Chain of S6K (P23443 whole entry): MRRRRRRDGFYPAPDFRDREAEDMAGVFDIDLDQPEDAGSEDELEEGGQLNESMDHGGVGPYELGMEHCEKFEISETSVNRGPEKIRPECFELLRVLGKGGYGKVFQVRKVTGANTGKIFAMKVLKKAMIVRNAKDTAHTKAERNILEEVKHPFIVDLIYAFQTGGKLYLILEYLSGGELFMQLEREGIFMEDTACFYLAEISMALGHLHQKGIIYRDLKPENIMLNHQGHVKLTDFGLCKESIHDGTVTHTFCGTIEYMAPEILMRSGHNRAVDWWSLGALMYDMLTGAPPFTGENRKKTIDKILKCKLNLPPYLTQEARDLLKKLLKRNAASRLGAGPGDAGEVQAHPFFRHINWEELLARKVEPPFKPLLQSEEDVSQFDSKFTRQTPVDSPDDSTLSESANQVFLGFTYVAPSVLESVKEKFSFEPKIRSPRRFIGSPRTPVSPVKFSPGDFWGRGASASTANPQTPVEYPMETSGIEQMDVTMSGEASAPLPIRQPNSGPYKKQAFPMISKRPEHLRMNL

Regarding `CC(C)(C)OC(=O)N[C@H](COc1cncc(-c2cc3c(cnc4cc(C#CCCn5ccnc5)ccc43)c(N)n2)c1)Cc1ccccc1` [Ia-6, tert-Butyl-{(1S)-2-[(5-{4-amino-8-[4-(1H-imidazol-1-yl)but-1-yn-1-yl]benzo[c]-2,7-naphthyridin-2-yl}pyridin-3-yl)oxy]-1-benzylethyl}carbamate], the IC50 in test [1] was more than 20000 nM; in test [2] (setting [5]), more than 5000 nM; in test [3] it was more than 20000 nM.

Regarding `CC(C)(C)OC(=O)N[C@H](COc1cncc(-c2cc3c(cnc4cc(Br)ccc43)c(N)n2)c1)Cc1ccccc1` [Ia-7, tert-butyl ((1S)-2-{[5-(4-amino-8-bromobenzo[c]-2,7-naphthyridin-2-yl)pyridin-3-yl]oxy}-1-benzylethyl)carbamate], the IC50 in test [1] is more than 20000 nM; in test [2] (setting [5]), more than 5000 nM; in test [3] it was more than 20000 nM.

Take `COc1cc2c(cc1OCCCN1CCCC1)ncc1c(N)nc(-c3cccnc3C)cc12` [Ia-9, 9-Methoxy-2-(2-methylpyridin-3-yl)-8-(3-pyrrolidin-1-ylpropoxy)benzo[c]-2,7-naphthyridin-4-amine]: the IC50 in test [1] is 4000 nM; in test [2] (setting [5]), 2120 nM; in test [3], more than 10000 nM.

On to `COc1cc2c(cc1OCCCN1CCN(C)CC1)ncc1c(N)nc(-n3ccnc3)cc12` [Ia-14, 2-(1H-imidazol-1-yl)-9-methoxy-8-(3-(4-methylpiperazin-1-yl)propoxy)benzo[c][2,7]naphthyridin-4-amine], for which the IC50 in test [1] is 350 nM; in test [2] (setting [5]), 356 nM; in test [3], more than 10000 nM.

`COc1cc2c(cc1OCCCN1CCCC1)ncc1c(N)nc(-n3ccnc3)cc12` [Ia-15, 2-(1H-imidazol-1-yl)-9-methoxy-8-(3-(pyrrolidin-1-yl)propoxy)benzo[c][2,7]naphthyridin-4-amine]: the IC50 in test [1] is 380 nM; in test [2] (setting [5]), 498 nM; in test [3] it was more than 10000 nM.

In the case of `COc1cc2c(cc1OCCCN1CCOCC1)ncc1c(N)nc(-n3ccnc3)cc12` [Ia-16, 2-(1H-imidazol-1-yl)-9-methoxy-8-(3-morpholinopropoxy)benzo[c][2,7]naphthyridin-4-amine], the IC50 was 380 nM in test [1], 170 nM in test [2] (setting [5]) and more than 10000 nM in test [3].

Regarding `CCN1CCN(CCC#Cc2ccc3ncc4c(N)nc(-n5ccnc5)cc4c3c2)CC1` [Ia-18, 9-[4-(4-Ethylpiperazin-1-yl)but-1-yn-1-yl]-2-(1H-imidazol-1-yl)benzo[c]-2,7-naphthyridin-4-amine], the figures for the IC50 in test [1], in test [2] (setting [5]) and in test [3] were more than 10000 nM, more than 3000 nM and more than 10000 nM, respectively.

On to `COc1cc2c(cc1N1CCC(N3CCCC3)CC1)ncc1c(N)nc(-c3cccnc3)cc12` [Ia-20, 9-methoxy-2-pyridin-3-yl-8-(4-pyrrolidin-1-ylpiperidin-1-yl)benzo[c]-2,7-naphthyridin-4-amine], for which the IC50 in test [1] was 300 nM; in test [2] (setting [5]) it was 893 nM; in test [3] it was more than 20000 nM.

As to `CCN1CCN(CC/C=C/c2ccc3c(c2)ncc2c(N)nc(-n4ccnc4)cc23)CC1` [Ia-25, 8-[(1E)-4-(4-ethylpiperazin-1-yl)but-1-en-1-yl]-2-(1H-imidazol-1-yl)benzo[c]-2,7-naphthyridin-4-amine], the IC50 is 230 nM in test [1], 116 nM in test [2] (setting [5]) and 1250 nM in test [3].

Consider `CCOc1cc2ncc3c(N)nc(-n4ccnc4)cc3c2cc1NC(=O)Nc1ccc(N(C)C)cc1` [Ia-27, N-[4-amino-8-ethoxy-2-(1H-imidazol-1-yl)benzo[c]-2,7-naphthyridin-9-yl]-N′-[4-(dimethylamino)phenyl]urea], for which the results for the half-inhibitory concentration (IC50) in test [1], in test [2] (setting [5]) and in test [3] were 16000 nM, 617 nM and more than 20000 nM, respectively.

With `CCOc1cc2ncc3c(N)nc(-n4ccnc4)cc3c2cc1NC(C)=O` [Ia-29, N-[4-amino-8-ethoxy-2-(1H-imidazol-1-yl)benzo[c]-2,7-naphthyridin-9-yl]acetamide], the IC50 in test [1] was more than 5000 nM; in test [2] (setting [5]), 385 nM; in test [3], more than 5000 nM.

On to `Nc1nc(-n2ccnc2)cc2c1cnc1cc(C#CCCn3ccnc3)ccc12` [Ia-30, 2-(1H-imidazol-1-yl)-8-[4-(1H-imidazol-1-yl)but-1-yn-1-yl]benzo[c]-2,7-naphthyridin-4-amine], for which the IC50 is 15000 nM in test [1], 179 nM in test [2] (setting [5]) and more than 20000 nM in test [3].

For `COc1cc2c(cc1OCC1CCN(C)CC1)ncc1c(N)nc(-c3cnccn3)cc12` [Ia-32], the IC50 is 250 nM in test [1], 754 nM in test [2] (setting [5]) and more than 20000 nM in test [3].

Take `COc1cc2c(cc1OCc1ccccc1)ncc1c(N)nc(-n3ccnc3)cc12` [Ia-34, 8-(Benzyloxy)-2-(1H-imidazol-1-yl)-9-methoxybenzo[c]-2,7-naphthyridin-4-amine]: the 50% inhibitory concentration (IC50) in test [1] was 180 nM; in test [2] (setting [5]), 193 nM; in test [3] it was more than 20000 nM.

Turning to `CCN1CCN(CCC#Cc2ccc3c(c2)ncc2c(N)nc(-n4ccnc4)cc23)CC1` [Ia-35, 8-[4-(4-ethylpiperazin-1-yl)but-1-yn-1-yl]-2-(1H-imidazol-1-yl)benzo[c]-2,7-naphthyridin-4-amine], the IC50 in test [1] came out at 2900 nM; in test [2] (setting [5]), 493 nM; in test [3], 6000 nM.

For `CN(C)CC#Cc1ccc2c(c1)ncc1c(N)nc(-n3ccnc3)cc12` [Ia-36, 8-[3-(Dimethylamino)prop-1-yn-1-yl]-2-(1H-imidazol-1-yl)benzo[c]-2,7-naphthyridin-4-amine], the IC50 in test [1] was found to be 2000 nM; in test [2] (setting [5]), 531 nM.

Consider `COCCOc1cc2ncc3c(N)nc(-n4cnc(-c5ccccc5)c4)cc3c2cc1OC` [Ia-41, 9-Methoxy-8-(2-methoxyethoxy)-2-(4-phenyl-1H-imidazol-1-yl)benzo[c]-2,7-naphthyridin-4-amine], for which the IC50 in test [1] is 18000 nM; in test [2] (setting [5]), 2030 nM; in test [3], more than 20000 nM.

Turning to `COCCOc1cc2ncc3c(N)nc(-n4cnc(C)c4)cc3c2cc1OC` [Ia-42, 9-Methoxy-8-(2-methoxyethoxy)-2-(4-methyl-1H-imidazol-1-yl)benzo[c]-2,7-naphthyridin-4-amine], the IC50 is 350 nM in test [1], 108 nM in test [2] (setting [5]) and more than 20000 nM in test [3].

Turning to `CCOc1cc2ncc3c(N)nc(-c4cccnc4)cc3c2cc1OCC` [Ia-46, 8,9-Diethoxy-2-pyridin-3-ylbenzo[c]-2,7-naphthyridin-4-amine], the IC50 in test [1] is 200 nM; in test [2], 74 nM; in test [3], more than 20000 nM.

For `COc1cc2ncc3c(N)nc(-c4cncc(OC[C@H](N)Cc5cccc(C(F)(F)F)c5)c4)cc3c2cc1OC` [Ib-28, 2-[5-({(2R)-2-amino-3-[3-(trifluoromethyl)phenyl]propyl}oxy)pyridin-3-yl]-8,9-dimethoxybenzo[c]-2,7-naphthyridin-4-amine], the IC50 in test [2] (setting [5]) was 21 nM; in test [4], 763 nM.

For `COc1cc2ncc3c(N)nc(-c4cncc(OC[C@@H](N)Cc5cccc(Cl)c5)c4)cc3c2cc1OC` [Ib-29, 2-(5-{[(2S)-2-amino-3-(3-chlorophenyl)propyl]oxy}pyridin-3-yl)-8,9-dimethoxybenzo[c]-2,7-naphthyridin-4-amine], the IC50 in test [2] (setting [5]) was found to be 8 nM; in test [4], 76 nM.

In the case of `COc1cc2ncc3c(N)nc(-c4cncc(OC[C@@H](N)Cc5ccc(OCc6ccccc6)cc5)c4)cc3c2cc1OC` [Ib-54, 2-[5-({(2S)-2-amino-3-[4-(benzyloxy)phenyl]propyl}oxy)pyridin-3-yl]-8,9-dimethoxybenzo[c]-2,7-naphthyridin-4-amine], the figures for the concentration for half-maximal inhibition (IC50) in test [1], in test [2] (setting [5]) and in test [3] were 3000 nM, 212 nM and more than 10000 nM, respectively.

Take `COc1cc2ncc3c(N)nc(-n4cnc(CO)c4)cc3c2cc1OC` [Ib-69, [1-(4-Amino-8,9-dimethoxybenzo[c]-2,7-naphthyridin-2-yl)-1H-imidazol-4-yl]methanol]: the results for the IC50 in test [1], in test [2] (setting [5]) and in test [3] were 2800 nM, 205 nM and more than 20000 nM, respectively.

`COc1cc2ncc3c(N)nc(-n4ccnc4)cc3c2cc1OC` [Ib-74, 2-(1H-imidazol-1-yl)-8,9-dimethoxybenzo[c]-2,7-naphthyridin-4-amine]: the figures for the IC50 in test [1] and in test [3] were 180 nM and more than 20000 nM, respectively.

As usually defined, the IC50 is the concentration that gives 50% inhibition.

The record behind these values is patent US20080293712A1, “Benzo[C][2,7]Naphtyridine Derivatives, Methods of Making Thereof and Methods of Use Thereof” (WYETH, priority 2007, published 2008).
